Experimental data: paper PMC11067372, “Evaluation of the antiplasmodial efficacy of synthetic 2,5-diphenyloxazole analogs of compounds naturally derived from Oxytropis lanata” (International Journal for Parasitology: Drugs and Drug …, 2024)
Where two headings read alike, the source gives them in different places.

Tests used:
[1] = In vitro toxicity to human cells (cell viability assay); format: cell-based; conditions: human foreskin fibroblasts (HFFs), average ± SD, three independent experiments
Method: HFF cells are selected for cytotoxicity testing in this study, providing a physiologically relevant model for the evaluation of drug interactions with human cells. […] This designation makes them a suitable model for the investigation of cellular processes and their sensitivity to toxic substances, which is crucial for the early identification of potential adverse effects of drugs during the development process.
(§1) The IC50 or CC50 values were determined from three independent experiments by plotting the logarithmic concentration of the compound against the percent parasite inhibition or cell growth inhibition, respectively. Nonlinear regression analysis was conducted using GraphPad Prism 10 (GraphPad Software, Inc., La Jolla, CA, USA). Comparisons between groups were evaluated using either one-way or two-way ANOVA followed by Tukey's or Fisher's multiple comparisons tests. A p-value of <0.05 was considered to indicate statistical significance and is denoted by an asterisk or a symbol. The meaning of each symbol is specified in the corresponding figure legend alongside the name of the employed test.

[2] = system: P. falciparum K1; assay: In vitro inhibition of P. falciparum K1 (SYBR Green I-based fluorescence assay); format: cell-based; conditions: Plasmodium falciparum; multidrug-resistant strain K1; 72 h incubation; average ± SD, three independent experiments; read-out: IC50 P. falciparum K1
Method: (§2) The cultures were maintained in an incubator under specific conditions: 37 °C under 5% CO2 and 5% O2.
(§3) The D-sorbitol method (CAS: 50-70-4, Wako, Osaka, Japan) was employed to synchronize parasites, resulting in the attainment of ≥90% ring-stage parasites. These synchronized parasites were then utilized for the experiments within a 2-h window. The assay was performed as follows. First, 50 μL of synchronized parasites with 0.5% parasitemia and 2% hematocrit were added to individual wells of a 96-well plate. Then, 50 μL of the test compounds was introduced to each well. […] Wells containing only test compounds and erythrocytes were included for background correction. […] After the designated incubation time, 100 μL of lysis buffer containing 0.02% (v/v) SYBR Green I was added to each well, the contents of the well were mixed by pipetting, and the plate was incubated in the dark at room temperature for 2 h. […] This assay was repeated four times at each concentration, and the resulting inhibitory values represent the average from three independent trials.
as §1, with “A p-value of <0.05 was considered to indicate statistical significance and is denoted by an asterisk or a symbol.” left out

[3] = system: P. falciparum 3D7; assay: In vitro inhibition of P. falciparum 3D7 (SYBR Green I-based fluorescence assay); format: cell-based, Plasmodium falciparum; design: logIC50: unit not given here; conditions: for IC50: Plasmodium falciparum; for logIC50: base-10 log-transformed IC50 against P. falciparum 3D7
Method: as §2, §3
as §1, with “A p-value of <0.05 was considered to indicate statistical significance and is denoted by an asterisk or a symbol.” left out

[4] = Table S2, P. falciparum 3D7, value used for SAR analysis, read-out: IC50
[5] = chloroquine-sensitive strain 3D7, 72 h incubation, average ± SD, three independent experiments, read-out: IC50 P. falciparum 3D7
[6] = 3D7, Table S1, average of three independent experiments, read-out: IC50 Mean against P. falciparum 3D7

| IC50 [2] | IC50 [3, 4] | IC50 [3, 5] | IC50 [3, 6] | SMILES | CC50 [1] | logIC50 ([3]; Table S2) |
| --- | --- | --- | --- | --- | --- | --- |
| – | – | – | > 200 µM | COc1ccccc1-c1cnc(-c2cccc(OC)c2OC)o1 [Compound 2] | – | 2.301 |
| – | – | – | > 200 µM | COc1ccc(OC)c(-c2ncc(-c3ccccc3OC)o2)c1 [Compound 5] | – | 2.301 |
| – | – | – | > 200 µM | COc1ccccc1-c1cnc(-c2ccccc2OC)o1 [Compound 13] | – | 2.301 |
| – | – | – | > 200 µM | COc1ccc(OC)c(-c2cnc(-c3cccc(OC)c3OC)o2)c1 [Compound 17] | – | 2.301 |
| – | 19.3 µM | – | 19.3 µM | COc1ccc(-c2ncc(-c3ccccc3OC)o2)c(OC)c1 [Compound 21] | – | 1.286 |
| – | – | – | 26.7 µM | COc1ccccc1-c1cnc(-c2c(OC)cccc2OC)o1 [Compound 22] | – | 1.426 |
| – | 12.7 µM | – | 12.7 µM | COc1cccc(-c2cnc(-c3cccc(OC)c3OC)o2)c1OC [Compound 23] | – | 1.104 |
| – | – | – | > 200 µM | COc1cccc(-c2ncc(-c3ccccc3OC)o2)c1 [Compound 26] | – | 2.301 |
| – | – | – | 106 µM | COc1ccc(OC)c(-c2cnc(-c3ccccc3OC)o2)c1 [Compound 27] | – | 2.027 |
| – | – | – | 125 µM | COc1cccc(-c2ncc(-c3c(OC)cccc3OC)o2)c1OC [Compound 28] | – | 2.096 |
| – | 24.9 µM | – | 24.9 µM | COc1ccc(-c2cnc(-c3cccc(OC)c3OC)o2)c(OC)c1 [Compound 29] | – | 1.397 |
| – | – | – | > 200 µM | COc1cccc(-c2ncc(-c3ccccc3C)o2)c1OC [Compound 30] | – | 2.301 |
| – | 18.2 µM | – | 18.2 µM | COCOc1ccccc1-c1cnc(-c2cccc(OC)c2OC)o1 [Compound 33] | – | 1.26 |
| – | – | – | > 200 µM | CCOc1ccccc1-c1cnc(-c2cccc(OC)c2OC)o1 [Compound 34] | – | 2.301 |
| – | 27.7 µM | – | 27.7 µM | CCCOc1ccccc1-c1cnc(-c2cccc(OC)c2OC)o1 [Compound 35] | – | 1.442 |
| – | – | – | 36.6 µM | COc1cccc(-c2ncc(-c3ccccc3N)o2)c1OC [Compound 37] | – | 1.564 |
| – | 54.2 µM | – | 54.2 µM | COc1cccc(-c2ncc(-c3ccccc3N(C)C)o2)c1OC [Compound 38] | – | 1.734 |
| – | – | – | 15.5 µM | COc1ccccc1-c1cnc(-c2cccc(OC)c2OC)s1 [Compound 41] | – | 1.189 |
| – | 16.9 µM | – | 16.9 µM | COc1ccccc1-c1nnc(-c2cccc(OC)c2OC)o1 [Compound 43] | – | 1.228 |
| – | – | – | 44.7 µM | COc1ccccc1-c1coc(-c2cccc(OC)c2OC)n1 [Compound 46] | – | 1.65 |

More lines, now with the values behind:

| SMILES | IC50 [2] | IC50 [3, 4] | IC50 [3, 5] | IC50 [3, 6] | CC50 [1] | logIC50 ([3]; Table S2) |
| --- | --- | --- | --- | --- | --- | --- |
| Oc1ccccc1-c1cnc(-c2cccc(O)c2O)o1 [Compound 1, 2-(2′,3′-dihydroxyphenyl)-5-(2″-hydroxyphenyl)oxazole] | 6.17 ± 3.33 µM | 11 µM | 11 ± 2.69 µM | – | 59.6 ± 4.84 µM | 1.042 |
| CC(=O)Oc1ccccc1-c1cnc(-c2cccc(OC(C)=O)c2OC(C)=O)o1 [Compound 3] | 4.7 ± 2.24 µM | 9.22 µM | 9.22 ± 1.68 µM | – | 126 ± 31.6 µM | 0.9649 |
| Oc1ccc(O)c(-c2ncc(-c3ccccc3O)o2)c1 [Compound 4, 2-(2′,5′-dihydroxyphenyl)-5-(2″-hydroxyphenyl)oxazole] | 3.74 ± 1.47 µM | 6.2 µM | 6.2 ± 4.23 µM | – | 55.4 ± 11.7 µM | 0.7924 |
| CC(=O)Oc1ccc(OC(C)=O)c(-c2ncc(-c3ccccc3OC(C)=O)o2)c1 [Compound 6] | – | 13.4 µM | – | 13.4 µM | – | 1.127 |
| Oc1ccc(O)c(-c2cnc(-c3ccccc3)o2)c1 [Compound 7, 2-phenyl-5-(2″,5″-hydroxyphenyl)oxazole] | 1.65 ± 0.72 µM | 3.85 µM | 3.85 ± 1.87 µM | – | 54.1 ± 11 µM | 0.5852 |
| COc1ccc(OC)c(-c2cnc(-c3ccccc3)o2)c1 [Compound 8] | – | – | – | > 200 µM | – | 2.301 |
| CC(=O)Oc1ccc(OC(C)=O)c(-c2cnc(-c3ccccc3)o2)c1 [Compound 9] | 1.27 ± 0.51 µM | 3.38 µM | 3.38 ± 1.46 µM | – | 56.7 ± 18.4 µM | 0.5284 |
| Oc1ccc(O)c(-c2cnc(-c3cc(O)ccc3O)o2)c1 [Compound 10, 2-(2′,5′-dihydroxyphenyl)-5-(2″,5″-dihydroxyphenyl)oxazole] | 4.94 ± 2.15 µM | 12.6 µM | 12.7 ± 7.63 µM | – | 39.5 ± 7.45 µM | 1.102 |
| COc1ccc(OC)c(-c2cnc(-c3cc(OC)ccc3OC)o2)c1 [Compound 11] | – | 15 µM | – | 15 µM | – | 1.177 |
| CC(=O)Oc1ccc(OC(C)=O)c(-c2cnc(-c3cc(OC(C)=O)ccc3OC(C)=O)o2)c1 [Compound 12] | 4.7 ± 1.69 µM | 10.2 µM | 10.2 ± 4.09 µM | – | 67.8 ± 1.39 µM | 1.01 |
| COc1cccc(-c2ncc(-c3ccc4ccccc4c3)o2)c1OC [Compound 14] | – | 62.4 µM | – | 62.4 µM | – | 1.795 |
| COc1cccc(-c2cnc(-c3cccc(OC)c3OC)o2)c1 [Compound 15] | – | 74.8 µM | – | 74.8 µM | – | 1.874 |
| COc1ccc(-c2cnc(-c3cccc(OC)c3OC)o2)cc1 [Compound 16] | – | – | – | 37.9 µM | – | 1.579 |
| COc1cccc(-c2ncc(-c3ccc(OC)c(OC)c3OC)o2)c1OC [Compound 18] | – | 51.1 µM | – | 51.1 µM | – | 1.708 |
| COc1cccc(-c2cnc(-c3cccc(OC)c3)o2)c1 [Compound 19] | – | – | – | 46.3 µM | – | 1.665 |
| COc1ccc(-c2cnc(-c3ccc(OC)cc3)o2)cc1 [Compound 20] | – | – | – | > 200 µM | – | 2.301 |
| COc1cccc(-c2cnc(-c3ccc(OC)c(OC)c3OC)o2)c1OC [Compound 24] | – | – | – | 68 µM | – | 1.832 |
| COc1cccc(-c2ncc(-c3ccccc3)o2)c1OC [Compound 25] | – | – | – | 29.9 µM | – | 1.476 |
| COc1cccc(-c2ncc(-c3ccccc3[N+](=O)[O-])o2)c1OC [Compound 36] | – | 39.6 µM | – | 39.6 µM | – | 1.598 |
| COc1cccc(-c2ncc(-c3ccccc3NC(C)=O)o2)c1OC [Compound 39] | – | – | – | > 200 µM | – | 2.301 |
| Oc1ccccc1-c1cnc(-c2cccc(O)c2O)s1 [Compound 40] | 1.74 ± 0.89 µM | 3.95 µM | 3.95 ± 1.38 µM | – | 46.3 ± 5.84 µM | 0.597 |
| Oc1ccccc1-c1nnc(-c2cccc(O)c2O)o1 [Compound 42] | 6.19 ± 2.66 µM | 9.53 µM | 9.53 ± 3.15 µM | – | 52.5 ± 13.2 µM | 0.9793 |
| Oc1ccccc1-c1nnc(-c2cccc(O)c2O)s1 [Compound 44] | 3.91 ± 1.45 µM | 6.41 µM | 6.41 ± 1.16 µM | – | 160 ± 62.3 µM | 0.8066 |
| COc1ccccc1-c1nnc(-c2cccc(OC)c2OC)s1 [Compound 45] | – | – | – | > 200 µM | – | 2.301 |
| Oc1ccccc1-c1coc(-c2cccc(O)c2O)n1 [Compound 47] | 3.13 ± 1.21 µM | 4.63 µM | 4.63 ± 1.18 µM | – | 71 ± 23.1 µM | 0.6658 |
